# From patent publication US7138388B2, “Methods to treat autoimmune and inflammatory conditions” (Celmed Oncology (USA), Inc., priority 2001, dated 2006)
# Tested on: animals with collagen-induced arthritis
# Experiment: Collagen-induced arthritis in mice: treatment after disease onset, assessed by clinical score and paw swelling
# Assay type: in vivo, male DBA/1 mice
# Method: Arthritis was induced in male DBA/1 mice (8–10 weeks old) by intradermal injection of bovine type II collagen, purified in-house at the Kennedy Institute of Rheumatology as previously described (Miller, E. J. et al. (1972)). Collagen was administered in complete Freund's adjuvant (Difco, Detroit, Michigan). Onset of arthritis was variable, occurring from Day 14 up to Day 40 after immunization. Arthritis onset was considered to occur on the day that swelling and/or erythema were observed. Clinical score is a composite of disease severity and the number of limbs affected, and was monitored daily from onset of disease and used as an assessment of disease progress. The scoring used was: 0, Normal; 1, slight swelling with erythema; 2, pronounced swelling; 3, joint rigidity. In addition, the extent of paw swelling reflects the degree of edema in affected limbs. Arthritis increased progressively over 10 days as reflected by both clinical score and paw swelling.
# Anti-TNF antibody was used in these experiments was as described by Marinova-Mutafchieva, L. et al. (2000). NB1011 was administered daily by intraperitoneal administration at 2.5 mg total dose per day. Anti-TNF antibody was compared with NB1011 because, at present, antiTNF antibody is the optimal single agent for treatment of collagen induced arthritis (Marinova-Mutafchieva, L. et al. (2000)).
# Following immunization with collagen, mice were maintained until a significant clinical score for disease progression was achieved (between 2.5 and 3.5, see FIG. 1 and Methods). Mice were then treated with control saline injections, NB1011, or with anti-TNF antibody as a positive control. […] Paw swelling is an alternative measure of CIA disease severity.
substance,measurement,setting,value
5-(2-Bromovinyl)-2′-deoxyuridine phenyl N-methoxy-L-alaninyl phosphoramidate [NB1011],difference between NB1011 and anti-TNF groups with regard to clinical score,"FIG. 1, NB1011 compared with anti-TNF positive control",no significant difference
same,disease suppression by clinical score,"FIG. 1, vs saline-treated control group, p<0.05, NB1011 intraperitoneal daily, 2.5 mg total dose per day, treatment started at clinical score between 2.5 and 3.5",significant disease suppression
same,difference between NB1011 and anti-TNF groups with regard to paw swelling,"FIG. 2, NB1011 compared with anti-TNF positive control",no significant difference
same,suppression of swelling relative to anti-TNF group,"FIG. 2, qualitative remark",may have been less dramatic
same,disease suppression by paw swelling,"FIG. 2, vs saline-treated control group, p<0.05, NB1011 intraperitoneal daily, 2.5 mg total dose per day",significant disease suppression
same,activity by comparison with earlier reported work on other agents,comparison with literature (Malfait 2000; Miotla 2000; Marinova-Mutafchieva 2000),"superior to anti-angiogenesis agents, an anti-CD4 immunosuppressive agent, and cannabidiol"
